This experiment concerns the target (recombinant) catalytic domain of human Bub1 (amino acids 704-1085) (Homo sapiens (Human), UniProt O43683). The experiment in a line: Bub1 kinase assay (TR-FRET). The experiment is classed as biochemical. Particulars: ATP 10 μM final, peptide substrate 1 μM final, 60 min at 22° C., read-out: Biological Assay: Bub1 kinase assay median IC50. In a few lines:
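Readout was TR-FRET between a Eu-labeled antibody complex recognizing phosphoserine and streptavidin-XL665 on the biotinylated peptide, after EDTA stop and 1 h at 22° C. The kinase reaction ran for 60 min at 22° C. Values are means or medians of repeat tests, from 4-parameter fits normalized to enzyme-free and inhibitor-free controls.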
Background: TR-FRET usually uses a lanthanide donor and a delayed reading to cut background.

This passage reports IC50 results from patent US10428044B2, “3-amino-1,5,6,7-tetrahydro-4H-indol-4-ones” (Bayer Pharma Aktiengesellschaft, priority 2014, dated 2019).

Each structure is given as a SMILES string.

Chain of (recombinant) catalytic domain of human Bub1 (amino acids 704-1085) (O43683 704-1085): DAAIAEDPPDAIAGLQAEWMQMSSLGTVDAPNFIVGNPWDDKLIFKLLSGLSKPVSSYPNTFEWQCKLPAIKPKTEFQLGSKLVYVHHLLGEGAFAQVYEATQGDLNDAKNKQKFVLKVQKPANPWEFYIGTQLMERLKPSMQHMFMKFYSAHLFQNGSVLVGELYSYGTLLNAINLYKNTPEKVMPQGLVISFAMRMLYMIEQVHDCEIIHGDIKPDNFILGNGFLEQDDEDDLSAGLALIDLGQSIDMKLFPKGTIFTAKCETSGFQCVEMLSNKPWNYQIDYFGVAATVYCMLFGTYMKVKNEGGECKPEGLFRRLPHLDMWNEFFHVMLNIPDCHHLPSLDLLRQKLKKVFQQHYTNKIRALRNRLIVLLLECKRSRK

A word on the IC50: it is the concentration at which inhibition is half-maximal. On to `O=C1CCCc2[nH]c(-c3ccnc(NC(=O)C4CC4)c3)c(Nc3ccc(F)c(F)c3)c21` [Example 316, N-(4-{3-[(3,4-difluorophenyl)amino]-4-oxo-4,5,6,7-tetrahydro-1H-indol-2-yl}pyridin-2-yl)cyclopropanecarboxamide], for which the half-inhibitory concentration (IC50) worked out at 82.3 nM. `CC(=O)Nc1cc(-c2[nH]c3c(c2Nc2ccccc2)C(=O)CC(C(C)C)C3)ccn1` (stereo not shown) [Example 317, N-{4-[4-oxo-3-(phenylamino)-6-(propan-2-yl)-4,5,6,7-tetrahydro-1H-indol-2-yl]pyridin-2-yl}acetamide]: the concentration for half-maximal inhibition (IC50) was determined as 10.9 nM. Take `CC(C)C1CC(=O)c2c([nH]c(-c3ccnc(NC(=O)C4CC4)c3)c2Nc2ccccc2)C1` (stereo not shown) [Example 318, N-{4-[4-oxo-3-(phenylamino)-6-(propan-2-yl)-4,5,6,7-tetrahydro-1H-indol-2-yl]pyridin-2-yl}cyclopropanecarboxamide]: the half-maximal inhibitory concentration (IC50) is 9.71 nM. Consider `CC(=O)Nc1cc(-c2[nH]c3c(c2Nc2cccc(F)c2)C(=O)CC(C(C)C)C3)ccn1` (stereo not shown) [Example 319, N-{4-[3-[(3-fluorophenyl)amino]-4-oxo-6-(propan-2-yl)-4,5,6,7-tetrahydro-1H-indol-2-yl]pyridin-2-yl}acetamide], for which the IC50 was found to be 8.69 nM. Next, `CC(C)C1CC(=O)c2c([nH]c(-c3ccnc(NC(=O)C4CC4)c3)c2Nc2cccc(F)c2)C1` (stereo not shown) [Example 320, N-{4-[3-[(3-fluorophenyl)amino]-4-oxo-6-(propan-2-yl)-4,5,6,7-tetrahydro-1H-indol-2-yl]pyridin-2-yl}cyclopropanecarboxamide]: 8.04 nM. The same measure for `CC(=O)Nc1cc(-c2[nH]c3c(c2Nc2ccc(F)cc2)C(=O)CC(C(C)C)C3)ccn1` (stereo not shown) [Example 321, N-{4-[3-[(4-fluorophenyl)amino]-4-oxo-6-(propan-2-yl)-4,5,6,7-tetrahydro-1H-indol-2-yl]pyridin-2-yl}acetamide]: 11.2 nM; for `CC(C)C1CC(=O)c2c([nH]c(-c3ccnc(NC(=O)C4CC4)c3)c2Nc2ccc(F)cc2)C1` (stereo not shown) [Example 322, N-{4-[3-[(4-fluorophenyl)amino]-4-oxo-6-(propan-2-yl)-4,5,6,7-tetrahydro-1H-indol-2-yl]pyridin-2-yl}cyclopropanecarboxamide]: 12.7 nM.

For `CC(=O)Nc1cc(-c2[nH]c3c(c2Nc2ccc(F)c(F)c2)C(=O)CC(C(C)C)C3)ccn1` (stereo not shown) [Example 323, N-{4-[3-[(3,4-difluorophenyl)amino]-4-oxo-6-(propan-2-yl)-4,5,6,7-tetrahydro-1H-indol-2-yl]pyridin-2-yl}acetamide], the half-inhibitory concentration (IC50) was determined as 21.6 nM.

On to `CC(C)C1CC(=O)c2c([nH]c(-c3ccnc(NC(=O)C4CC4)c3)c2Nc2ccc(F)c(F)c2)C1` (stereo not shown) [Example 324, N-{4-[3-[(3,4-difluorophenyl)amino]-4-oxo-6-(propan-2-yl)-4,5,6,7-tetrahydro-1H-indol-2-yl]pyridin-2-yl}cyclopropanecarboxamide], for which the IC50 was 26.4 nM.

For the molecule `COCC(=O)Nc1cc(-c2[nH]c3c(c2Nc2ccccc2)C(=O)CCC3)ccn1` [Example 325, 2-methoxy-N-{4-[4-oxo-3-(phenylamino)-4,5,6,7-tetrahydro-1H-indol-2-yl]pyridin-2-yl}acetamide], the IC50 is 19.8 nM. Next, `COC(C)(C)C(=O)Nc1cc(-c2[nH]c3c(c2Nc2ccccc2)C(=O)CCC3)ccn1` [Example 326, 2-methoxy-2-methyl-N-{4-[4-oxo-3-(phenylamino)-4,5,6,7-tetrahydro-1H-indol-2-yl]pyridin-2-yl}propanamide]: 608 nM.

Take `CC(C)(O)C(=O)Nc1cc(-c2[nH]c3c(c2Nc2ccccc2)C(=O)CCC3)ccn1` [Example 327, 2-hydroxy-2-methyl-N-{4-[4-oxo-3-(phenylamino)-4,5,6,7-tetrahydro-1H-indol-2-yl]pyridin-2-yl}propanamide]: the concentration for half-maximal inhibition (IC50) was 280 nM.

With `CCOC(C)(C)C(=O)Nc1cc(-c2[nH]c3c(c2Nc2ccccc2)C(=O)CCC3)ccn1` [Example 328], the 50% inhibitory concentration (IC50) was 524 nM. Next, `COC(C)C(=O)Nc1cc(-c2[nH]c3c(c2Nc2ccccc2)C(=O)CCC3)ccn1` (stereo not shown) [Example 329]: 65.4 nM; `CCCOCC(=O)Nc1cc(-c2[nH]c3c(c2Nc2ccccc2)C(=O)CCC3)ccn1` [Example 330, N-{4-[4-oxo-3-(phenylamino)-4,5,6,7-tetrahydro-1H-indol-2-yl]pyridin-2-yl}-2-propoxyacetamide]: 7.83 nM. The same measure for `CC(C)COCC(=O)Nc1cc(-c2[nH]c3c(c2Nc2ccccc2)C(=O)CCC3)ccn1` [Example 331, 2-(2-methylpropoxy)-N-{4-[4-oxo-3-(phenylamino)-4,5,6,7-tetrahydro-1H-indol-2-yl]pyridin-2-yl}acetamide]: 13 nM; for `CCCCOCC(=O)Nc1cc(-c2[nH]c3c(c2Nc2ccccc2)C(=O)CCC3)ccn1` [Example 333, 2-butoxy-N-{4-[4-oxo-3-(phenylamino)-4,5,6,7-tetrahydro-1H-indol-2-yl]pyridin-2-yl}acetamide]: 7.33 nM. The same measure for `CCOCC(=O)Nc1cc(-c2[nH]c3c(c2Nc2ccccc2)C(=O)CCC3)ccn1` [Example 334, 2-ethoxy-N-{4-[4-oxo-3-(phenylamino)-4,5,6,7-tetrahydro-1H-indol-2-yl]pyridin-2-yl}acetamide]: 9.36 nM; for `C=CCOCC(=O)Nc1cc(-c2[nH]c3c(c2Nc2ccccc2)C(=O)CCC3)ccn1` [Example 335, N-{4-[4-oxo-3-(phenylamino)-4,5,6,7-tetrahydro-1H-indol-2-yl]pyridin-2-yl}-2-(prop-2-en-1-yloxy)acetamide]: 9.9 nM. Take `C#CCOCC(=O)Nc1cc(-c2[nH]c3c(c2Nc2ccccc2)C(=O)CCC3)ccn1` [Example 336, N-{4-[4-oxo-3-(phenylamino)-4,5,6,7-tetrahydro-1H-indol-2-yl]pyridin-2-yl}-2-(prop-2-yn-1-yloxy)acetamide]: the 50% inhibitory concentration (IC50) amounted to 8.53 nM. The same measure for `O=C(COc1ccccc1)Nc1cc(-c2[nH]c3c(c2Nc2ccccc2)C(=O)CCC3)ccn1` [Example 337, N-{4-[4-oxo-3-(phenylamino)-4,5,6,7-tetrahydro-1H-indol-2-yl]pyridin-2-yl}-2-phenoxyacetamide]: 22.9 nM; for `O=C(COc1cccc(F)c1)Nc1cc(-c2[nH]c3c(c2Nc2ccccc2)C(=O)CCC3)ccn1` [Example 338, 2-(3-fluorophenoxy)-N-{4-[4-oxo-3-(phenylamino)-4,5,6,7-tetrahydro-1H-indol-2-yl]pyridin-2-yl}acetamide]: 31.6 nM.

As to `O=C(COc1ccccc1F)Nc1cc(-c2[nH]c3c(c2Nc2ccccc2)C(=O)CCC3)ccn1` [Example 339, 2-(2-fluorophenoxy)-N-{4-[4-oxo-3-(phenylamino)-4,5,6,7-tetrahydro-1H-indol-2-yl]pyridin-2-yl}acetamide], the IC50 was 39.4 nM. Turning to `O=C(COCc1ccccc1)Nc1cc(-c2[nH]c3c(c2Nc2ccccc2)C(=O)CCC3)ccn1` [Example 340, 2-(benzyloxy)-N-{4-[4-oxo-3-(phenylamino)-4,5,6,7-tetrahydro-1H-indol-2-yl]pyridin-2-yl}acetamide], the IC50 worked out at 7.25 nM. The same measure for `O=C(COCc1ccc(F)cc1)Nc1cc(-c2[nH]c3c(c2Nc2ccccc2)C(=O)CCC3)ccn1` [Example 341, 2-[(4-fluorobenzyl)oxy]-N-{4-[4-oxo-3-(phenylamino)-4,5,6,7-tetrahydro-1H-indol-2-yl]pyridin-2-yl}acetamide]: 7.89 nM.
